# Measurements from publication PMC8380212, “^18F-labeled tracers targeting fibroblast activation protein” (EJNMMI Radiopharmacy and Chemistry, 2021).
# Legend:
# Serum stability assay = type: in vitro ADME, human; conditions: 37 °C, 10 min to 4 h, radio-HPLC
# Procedure: Five MBq of purified [^18F]AlF-FAPI-74 (20 GBq/µmol) were dried under reduced pressure and the residue incubated in 300 µL human serum (Sigma Aldrich Germany) at 37 °C. After different time intervals (10 min to 4 h) 20 µL samples were precipitated with 40 µL acetonitrile. The stability of the labeled peptide was monitored by radio-HPLC of the supernatant. A gradient of 0% to 30% acetonitrile in 10 min was used for enhanced separation performance.
# [1] = Determination of logD values (1-octanol / PBS); type: physicochemical; conditions: 1-octanol / phosphate buffered saline, pH 7.4; radiolabeled tracer detected by radioactivity in 1-octanol and phosphate buffered saline
# Procedure: All experiments for the determination of logD values were performed in triplicate. For the determination by means of radioactivity, around 5 × 10^6 cpm in ca. 1 µL of radioactive stock solutions (water/acetonitrile 1:1) were added to 100 µL phosphate buffered saline (PBS, pH 7.4) and 100 µL of 1-octanol. The mixture was vortexed for 1 min, followed by 5 min of centrifugation for phase separation. A sample of each phase (10 or 50 µL) was measured for radioactivity per volume (Packard Cobra II Autogamma, GMI Inc., USA). In case of FAPI-72 and -73, the reference compounds [^19F]-FAPI-72 and -73 were dissolved in PBS at a concentration of 1 mg/mL. 50 µL of these solutions were each mixed with 50 µL 1-octanol and processed by vortexing and centrifugation as described above. 1 µL of each phase was analyzed by HPLC and the individual content of compound was determined by peak integration. The area under the peaks of the individual runs was used to calculate the log D value.
# Fig. 1 Overview of the synthesized precursors discussed in this study. The corresponding log D values were determined by detection of the radiolabeled tracer in 1-octanol and phosphate buffered saline (pH 7). For values labeled with an asterix, the log D was calculated from the relative content of the non-radioactive reference standards in the 1-octanol and the water phase by HPLC analysis and peak integration TEXT PRINTED IN THE PICTURE: FAPI-42: LOG D: -1.63±0.06 | FAPI-52: LOG D: -1.90±0.02 | FAPI-72: LOG D: 1.20±0.01* | FAPI-73: LOG D: 1.13±0.05* | FAPI-74: LOG D: -2.42±0.03 | FAPI-75: LOG D: -3.36±0.12 | FAPI-76: LOG D: -2.86±0.07
# HT-1080-FAP xenografts = experiment: Organ distribution (biodistribution) study; type: in vivo, BALB/c nu/nu mice
# Procedure: Eight-week-old BALB/c nu/nu mice (Charles River) were subcutaneously inoculated with 5 × 10^6 HT-1080-FAP cells. The subcutaneous xenografts were grown at the flanks of the mice. Xenografts were grown to a tumor diameter of 10–15 mm. Mice were anesthetized using isoflurane inhalation. 5–10 MBq of the [^18F]AlF-labeled compounds/ the respective tracer (FAPI-42/52/74/75/76; approx. 0.5 nmol; Am approximately 10–20 GBq/µmol) were injected intravenously for PET imaging. In vivo competition (blocking) experiments with ^68 Ga-FAPI-74 (9 MBq; 18.2 GBq/µmol) were performed by adding 30 nmol of unlabeled FAPI-74 to the injection solution. Images were acquired using a small-animal PET scanner (Inveon, Siemens). Within the first 60 min p.i., a dynamic scan was performed in list mode, followed by a static scan from 120–140 min post injection. Images were reconstructed iteratively using the 3D-OSEM + MAP method (Siemens) and were converted to standardized uptake value (SUV). For the dynamic analysis, 28 frames were reconstructed. Quantification was based on ROI analysis and expressed as SUV.
# To reduce radiation exposure, the organ distribution study was performed with 1 MBq per animal. […] The radioactivity was measured using a γ-counter (Packard Cobra II Autogamma, GMI Inc., USA) and expressed as percentage of injected dose per gram of tissue (%ID/g). […]
compound,measurement,setting,value
N#C[C@@H]1CCCN1C(=O)CNC(=O)c1ccnc2ccc(OCCCN3CCN(C(=O)CN4CCN(CC(=O)O)CCN(CC(=O)O)CC4)CC3)cc12 [FAPI-74],stability in human serum,Serum stability assay; listed as 18F-labeled FAPI-74,No degradation products were observed
same,stability in human serum,Serum stability assay; listed as [^18F]AlF-FAPI-74,no degradation of the tracer or instability of the [^18F]AlF-NOTA complex
same,logD,[1],-2.42 ± 0.03
same,tumor uptake,"HT-1080-FAP xenografts; after 30 min, HT-1080-FAP bearing Balb/c nu/nu mice",6.9 %ID/g
same,early tumor uptake,"HT-1080-FAP xenografts; early, discussion",approximately 7 %ID/g
